According to patent US20260327211A1, “MODULATORS OF A POTASSIUM CHANNEL AND OF TRPV1 CHANNEL AND USES THEREOF” (Bsense Bio Therapeutics Ltd., priority 2023, published 2026):
Read-outs that look alike come from different tables or passages of the source. One block for each molecule: values may come before it.

Key:
[1] = Human hepatocyte stability; assay type: in vitro ADME; details: human hepatocytes; for half-life: read-out: Hepatocytes (human) T1/2
Rat hepatocyte stability = assay type: in vitro ADME; details: hepatocytes; for half-life: read-out: Hepatocytes (rat) T1/2
CYP2B6 = target: T1, CYP2B6 (Homo sapiens, UniProt P20813); assay: CYP inhibition / time-dependent inhibition, CYP2B6_Bupropion; assay type: in vitro ADME; details: role: inhibitor
T1 construct: pre-incubation of the human liver microsomes with the test compound; tissue Corning; host or cells: human liver microsomes
T1 sequence (P20813 1-491): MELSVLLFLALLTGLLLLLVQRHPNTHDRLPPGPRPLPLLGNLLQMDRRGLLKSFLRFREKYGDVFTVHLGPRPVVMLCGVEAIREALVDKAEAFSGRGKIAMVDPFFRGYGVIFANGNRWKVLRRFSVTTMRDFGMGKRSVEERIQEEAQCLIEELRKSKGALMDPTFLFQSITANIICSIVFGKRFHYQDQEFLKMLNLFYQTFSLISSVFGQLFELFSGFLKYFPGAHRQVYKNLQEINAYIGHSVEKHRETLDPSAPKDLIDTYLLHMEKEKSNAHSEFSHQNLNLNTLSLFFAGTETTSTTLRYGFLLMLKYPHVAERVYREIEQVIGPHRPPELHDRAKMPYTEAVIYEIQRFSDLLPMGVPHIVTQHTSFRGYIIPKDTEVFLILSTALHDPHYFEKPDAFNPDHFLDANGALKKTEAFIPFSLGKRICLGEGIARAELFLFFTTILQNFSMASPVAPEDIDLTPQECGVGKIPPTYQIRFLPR

CYP2C9 = target: T2, CYP2C9 (Homo sapiens, UniProt P11712); assay: CYP inhibition / time-dependent inhibition, CYP2C9_Diclofenac; assay type: in vitro ADME; details: role: inhibitor
T2 construct: pre-incubation of the human liver microsomes with the test compound; tissue Corning; host or cells: human liver microsomes
T2 sequence (P11712 whole entry): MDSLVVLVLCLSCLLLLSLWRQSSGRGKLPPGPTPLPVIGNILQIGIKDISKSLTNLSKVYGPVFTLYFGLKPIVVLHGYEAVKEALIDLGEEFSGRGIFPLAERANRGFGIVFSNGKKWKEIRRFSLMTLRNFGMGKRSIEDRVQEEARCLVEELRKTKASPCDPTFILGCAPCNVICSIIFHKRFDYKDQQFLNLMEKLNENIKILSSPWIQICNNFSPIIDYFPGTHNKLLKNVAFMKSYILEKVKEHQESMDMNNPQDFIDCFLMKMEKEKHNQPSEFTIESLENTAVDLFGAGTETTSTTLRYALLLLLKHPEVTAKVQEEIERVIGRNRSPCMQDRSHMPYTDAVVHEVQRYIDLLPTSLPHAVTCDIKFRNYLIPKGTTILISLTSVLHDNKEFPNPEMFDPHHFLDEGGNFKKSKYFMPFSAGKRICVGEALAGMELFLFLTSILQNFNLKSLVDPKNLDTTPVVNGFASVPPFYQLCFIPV
Protocol: (§1) The time-dependent inactivation potency of the test compound to CYP enzymatic activities was assessed by the pre-incubation of the human liver microsomes with the test compound in the presence and absence of NADPH, followed by the incubation with the discrete marker substrates, as follows.
(§2) Pre-incubation with human liver microsomes (HLMs): The TDI inactivation potency on CYP enzymatic activities was evaluated through pre-incubation with HLMs (Corning). A liver microsome mixture at a concentration of 0.1 mg/mL, and the test compound at 8 different concentrations (0, 0.05, 0.165, 0.5, 1.65, 5.0, 16.5, or 50.0 μM) was warmed at 37° C. for 10 minutes. Concurrently, a set of known time-dependent inactivators was also prepared in duplicate for comparison. Following this, NADPH (1.0 mM) was added to one group (Group 1), and an equal volume of potassium phosphate buffer to the second group (Group 2), marking the beginning of a 30-minute pre-incubation at 37° C.
(§3) Incubation: After pre-incubation, the marker substrate, or marker substrate plus NADPH was added to the mixture, thereby initiating the incubation. The duration of the incubation was dependent on the type of CYP isoform being evaluated. For example, with the CYP3A isoform, the mixture was incubated over 3 minutes utilizing midazolam as the marker substrate (2.0 μM), verapamil as the standard inactivator (3.5 μM).
(§4) Termination of Reaction: Following the incubation, ice-cooled acetonitrile containing the internal standard (IS) was added to halt the reactions. Metabolites generated from the marker substrates were then measured via LC-MS/MS, assessed based on peak area ratios of the analyte to IS.

CYP2D6 = target: T3, CYP2D6 (Homo sapiens, UniProt P10635); assay: CYP inhibition / time-dependent inhibition, CYP2D6_Dextromethorphan; assay type: in vitro ADME; details: role: inhibitor
T3 construct: pre-incubation of the human liver microsomes with the test compound; tissue Corning; host or cells: human liver microsomes
T3 sequence (P10635 whole entry): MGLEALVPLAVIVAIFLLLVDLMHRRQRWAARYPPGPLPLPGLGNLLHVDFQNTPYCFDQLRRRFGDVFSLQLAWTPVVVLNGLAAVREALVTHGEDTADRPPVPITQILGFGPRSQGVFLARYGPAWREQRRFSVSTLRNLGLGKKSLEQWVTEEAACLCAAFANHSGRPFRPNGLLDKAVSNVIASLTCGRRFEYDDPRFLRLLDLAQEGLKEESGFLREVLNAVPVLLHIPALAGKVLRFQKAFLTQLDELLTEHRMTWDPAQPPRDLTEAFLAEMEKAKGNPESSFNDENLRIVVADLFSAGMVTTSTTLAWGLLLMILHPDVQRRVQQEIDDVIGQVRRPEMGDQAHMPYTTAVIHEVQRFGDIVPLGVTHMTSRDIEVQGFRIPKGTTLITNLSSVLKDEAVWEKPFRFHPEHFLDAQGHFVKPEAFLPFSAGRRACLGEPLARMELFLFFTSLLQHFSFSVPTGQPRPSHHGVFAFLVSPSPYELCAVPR
Protocol: as §1, §2, §3, §4

[2] = CYP inhibition / time-dependent inhibition, CYP3A4_Testosterone; assay type: in vitro ADME; details: human, liver microsomes, role: inhibitor, substrate testosterone
Protocol: as §1, §2, §3, §4

rats [3] = assay: Core body temperature; assay type: in vivo, rat
Protocol: Core Body Temperature: Following two days of habituation to the measurement method, the body temperature was measured on study day for baseline values and then again post-dosing in the time points indicated in the figure. Body temperature was measured using a probe gently inserted into the animal anus using a corn oil lubricant (C8267, Sigma-Aldrich, IL).

rats [4] = assay: Hot plate (53° C.); assay type: in vivo, rat
Protocol: Hot Plate: Animals were placed on hot plate analgesia meter (IITC Life Science Inc., CA, USA) set to 53±1° C., and the time until the first escape response was observed was recorded. A response was considered when the animals lifted or licked their leg or performed kicking behavior.

opioid delta receptor = target: T4, opioid delta receptor (Homo sapiens, UniProt P41143); assay: Functional selectivity panel, opioid delta receptor; assay type: biochemical
T4 construct: Eurofins DiscoverX, USA
T4 sequence (P41143 whole entry): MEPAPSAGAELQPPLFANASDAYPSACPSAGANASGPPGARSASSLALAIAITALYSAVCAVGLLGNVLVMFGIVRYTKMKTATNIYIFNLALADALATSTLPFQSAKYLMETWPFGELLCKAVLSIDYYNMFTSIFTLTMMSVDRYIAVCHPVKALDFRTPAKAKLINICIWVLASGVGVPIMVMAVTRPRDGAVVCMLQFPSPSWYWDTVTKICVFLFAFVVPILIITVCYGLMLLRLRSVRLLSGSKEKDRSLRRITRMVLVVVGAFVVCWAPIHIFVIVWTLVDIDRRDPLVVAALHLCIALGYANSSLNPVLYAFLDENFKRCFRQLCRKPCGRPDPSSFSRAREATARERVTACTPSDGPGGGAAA
Protocol: (§5) A broad panel of 78 recombinant targets was tested for pharmacologic activity in vitro through a variety of functional assays (Eurofins DiscoverX, USA), as part of the National Institute of Neurological Disorders and Stroke (NINDS) Preclinical Screening Platform for Pain (PSPP) program. The biological targets for the in vitro profiling have been selected based on avoiding opioid receptor stimulation and targets known to be associated with adverse events or targeted by drugs of abuse. […] For each test, a reference compound was evaluated at the target of interest as a positive control.

Kv7.1 = target: T5, Kv7.1 (Homo sapiens, UniProt P51787); assay: Kv7.1; assay type: biochemical
T5 construct: Eurofins DiscoverX, USA (assay provider)
T5 sequence (P51787 whole entry): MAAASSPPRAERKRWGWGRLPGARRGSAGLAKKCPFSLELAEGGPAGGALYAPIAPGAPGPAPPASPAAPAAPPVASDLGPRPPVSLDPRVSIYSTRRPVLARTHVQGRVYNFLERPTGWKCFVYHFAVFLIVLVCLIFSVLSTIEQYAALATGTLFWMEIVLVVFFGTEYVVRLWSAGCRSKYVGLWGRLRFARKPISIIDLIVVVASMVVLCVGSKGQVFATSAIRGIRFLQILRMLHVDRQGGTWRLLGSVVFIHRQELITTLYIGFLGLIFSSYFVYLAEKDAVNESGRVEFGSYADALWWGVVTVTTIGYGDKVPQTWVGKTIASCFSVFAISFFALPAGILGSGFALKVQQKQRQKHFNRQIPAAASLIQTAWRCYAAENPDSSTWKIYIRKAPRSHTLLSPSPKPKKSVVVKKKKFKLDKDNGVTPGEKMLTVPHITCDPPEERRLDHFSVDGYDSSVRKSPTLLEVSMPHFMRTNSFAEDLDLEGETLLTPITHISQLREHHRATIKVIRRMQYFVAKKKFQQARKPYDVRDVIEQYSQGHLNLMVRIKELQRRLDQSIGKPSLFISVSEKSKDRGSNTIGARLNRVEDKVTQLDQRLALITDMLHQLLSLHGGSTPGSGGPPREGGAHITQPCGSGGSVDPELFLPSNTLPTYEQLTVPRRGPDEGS
Protocol: as §5

CLint scaled [1]: 190 mL/min/kg | half-life [1]: 20.3 min | CLint scaled (Rat hepatocyte stability): 514 mL/min/kg | half-life (Rat hepatocyte stability): 12.6 min
SMILES: O=C(Cc1cc(-n2cc(Cl)c3cc(Cl)cc(Cl)c32)ccc1F)NCCO [Compound 627]

CLint scaled [1]: 73.8 mL/min/kg | half-life [1]: 52.2 min | CLint scaled (Rat hepatocyte stability): 1140 mL/min/kg | half-life (Rat hepatocyte stability): 5.7 min | IC50 (CYP2B6; (+)NADPH pre-incubation, substrate bupropion, read-out: IC50 (+)NADPH CYP2B6_Bupropion): 8.91 µM | IC50 (CYP2B6; (−)NADPH pre-incubation, substrate bupropion, read-out: IC50 (−)NADPH CYP2B6_Bupropion): 11 µM | IC50 (CYP2C9; (+)NADPH pre-incubation, substrate diclofenac, read-out: IC50 (+)NADPH CYP2C9_Diclofenac): 13 µM | IC50 (CYP2C9; (−)NADPH pre-incubation, substrate diclofenac, read-out: IC50 (−)NADPH CYP2C9_Diclofenac): 14.8 µM | IC50 (CYP2D6; (+)NADPH pre-incubation, substrate dextromethorphan, read-out: IC50 (+)NADPH CYP2D6_Dextromethorphan): 31.7 µM | IC50 (CYP2D6; (−)NADPH pre-incubation, substrate dextromethorphan, read-out: IC50 (−)NADPH CYP2D6_Dextromethorphan): 28.5 µM | IC50 at 0.5 h ([2]; (+)NADPH pre-incubation): 7.36 µM | IC50 at 0.5 h ([2]; (−)NADPH pre-incubation): 10.1 µM | Core body temperature (rats [3]; up to 300 mg/kg, 1-24 hours post-dose): no effects on core body temperature | Hot plate escape latency (rats [4]; 20 and 50 mg/kg PO, 2-10 hours post-dose): no significant effect on escape latency | IC50 (opioid delta receptor): 10 µM
SMILES: O=C(Cc1cncc(-n2cc(Cl)c3cc(Cl)cc(Cl)c32)c1)N[C@@H]1COC[C@H]1O [Compound 661]
Core body temperature (rats [3]; 20 and 50 mg/kg PO): no significant change in core body temperature | Kv7.1 activity (Kv7.1; up to solubility limit): no measurable activity at any concentration tested

SMILES: O=C(Cc1nccc(-n2cc(Cl)c3cc(Cl)cc(Cl)c32)n1)NC1COCC1O (centres unmarked) [Compound 760]
IC50 (CYP2B6; Table 9, read-out: CYP inhibition IC50 CYP2B6): 34.9 µM | IC50 (CYP2C9; Table 9, read-out: CYP inhibition IC50 CYP2C9): 44.3 µM | IC50 (CYP2D6; Table 9, read-out: CYP inhibition IC50 CYP2D6): > 50 µM | IC50 ([2]; Table 9, read-out: CYP inhibition IC50 CYP3A-Testosterone): 19.8 µM | Core body temperature (rats [3]; up to 300 mg/kg oral): displayed safety potential at up to 300 mg/kg oral dosing | Hot-plate response (rats [4]; up to 300 mg/kg oral): displayed safety potential at up to 300 mg/kg oral dosing | Effect on Opioid-delta (opioid delta receptor; up to 10 micromolar): no effect | Effect on Kv7.1 (Kv7.1; up to 10 micromolar): no effect
